What all share (test): biochemical
Common to all, as to parameters: Thermo Fisher SelectScreen kinase panel: Z'-LYTE and Adapta activity, LanthaScreen binding
A general note: Time-resolved FRET reads energy transfer from a long-lived donor to a nearby acceptor.

The target of one assay is PLK1 (Homo sapiens, UniProt P53350). In short, it runs like this: (§1)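 GNE684 profiled at 10 µM across 221 kinases with Z'-LYTE and Adapta activity and LanthaScreen binding formats. Also screened at 10 µM against 468 kinases in KINOMEscan scanMAX binding assay.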
A further assay has as its target PAK4 (Homo sapiens, UniProt O96013). In short, it runs like this: as §1
The next assay has as its target T1, IRR (Homo sapiens, UniProt P14616).
T1 construct: gene INSRR
Summed up: as §1

Another assay addresses T2, DRAK1 (Homo sapiens, UniProt Q9UEE5).
T2 construct: gene STK17A
Summed up:
as §1

In another assay the target is KDR (Homo sapiens, UniProt P35968). In short, it runs like this: as §1
The target in another assay is T3, MST3 (Homo sapiens, UniProt Q9Y6E0).
T3 construct: gene STK24
In short, it runs like this: as §1

The target in another assay is T4, DCAMKL2 (Homo sapiens, UniProt Q8N568).
T4 construct: gene DCLK2
Summed up:
as §1

A further assay has as its target T5, CK2_alpha1 (Homo sapiens, UniProt P68400).
T5 construct: gene CSNK2A1
In short, it runs like this:
as §1

The next assay addresses T6, GSK3_beta (Homo sapiens, UniProt P49841).
T6 construct: gene GSK3B
In short, it runs like this:
as §1

A further assay deals with T7, Hyl (Homo sapiens, UniProt P42679).
T7 construct: gene MATK
Summed up:
as §1

Another assay concerns the target RAF1(Y340D,Y341D) (Homo sapiens, UniProt P04049, Y340D/Y341D). In short, it runs like this: as §1
The target in another assay is DYRK4 (Homo sapiens, UniProt Q9NR20). Summed up:
as §1

Another assay concerns the target T8, PDK1(direct) (Homo sapiens, UniProt O15530).
T8 construct: gene PDPK1; direct
Summed up:
as §1

In another assay the target is MUSK (Homo sapiens, UniProt O15146). Summed up:
as §1

A further assay addresses T9, JNK3 (Homo sapiens, UniProt P53779).
T9 construct: gene MAPK10
In short, it runs like this: as §1

A further assay has as its target T10, PhK_gamma2 (Homo sapiens, UniProt P15735).
T10 construct: gene PHKG2
In short, it runs like this:
as §1

A further assay addresses T11, CaMKI (Homo sapiens, UniProt Q14012).
T11 construct: gene CAMK1
In short, it runs like this:
as §1

Another assay concerns the target HIPK4 (Homo sapiens, UniProt Q8NE63). In short, it runs like this: as §1
In the next assay the target is T12, PhK_gamma1 (Homo sapiens, UniProt Q16816).
T12 construct: gene PHKG1
In short, it runs like this:
as §1

A further assay concerns the target T13, PKG1_alpha (Homo sapiens, UniProt Q13976).
T13 construct: gene PRKG1; isoform alpha
In short, it runs like this: as §1

The target in a further assay is MARK3 (Homo sapiens, UniProt P27448). Summed up:
as §1

For a further assay, the target named is Mink1 (Homo sapiens, UniProt Q8N4C8). In short, it runs like this:
as §1

The target of the next assay is FGFR4 (Homo sapiens, UniProt P22455). In short, it runs like this:
as §1

RAF1(Y340D,Y341D), sequence (P04049 whole entry Y340D/Y341D): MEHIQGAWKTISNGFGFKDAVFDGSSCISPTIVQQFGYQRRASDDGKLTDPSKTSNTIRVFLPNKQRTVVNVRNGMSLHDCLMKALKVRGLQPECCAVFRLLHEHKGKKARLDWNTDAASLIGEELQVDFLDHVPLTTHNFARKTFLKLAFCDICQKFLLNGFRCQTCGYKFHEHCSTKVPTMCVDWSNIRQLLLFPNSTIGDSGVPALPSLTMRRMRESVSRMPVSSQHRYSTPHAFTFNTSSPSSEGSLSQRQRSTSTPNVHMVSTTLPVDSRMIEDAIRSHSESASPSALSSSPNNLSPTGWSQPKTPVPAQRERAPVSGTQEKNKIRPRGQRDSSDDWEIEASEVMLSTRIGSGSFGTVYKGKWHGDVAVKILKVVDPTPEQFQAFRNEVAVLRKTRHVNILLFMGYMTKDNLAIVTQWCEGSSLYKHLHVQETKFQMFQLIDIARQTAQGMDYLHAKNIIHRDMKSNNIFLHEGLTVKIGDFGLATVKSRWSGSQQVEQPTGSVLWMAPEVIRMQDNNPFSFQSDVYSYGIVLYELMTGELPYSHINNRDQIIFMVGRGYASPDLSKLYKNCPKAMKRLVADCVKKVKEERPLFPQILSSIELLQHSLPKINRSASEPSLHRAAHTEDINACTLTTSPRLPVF
MARK3, sequence (P27448 whole entry): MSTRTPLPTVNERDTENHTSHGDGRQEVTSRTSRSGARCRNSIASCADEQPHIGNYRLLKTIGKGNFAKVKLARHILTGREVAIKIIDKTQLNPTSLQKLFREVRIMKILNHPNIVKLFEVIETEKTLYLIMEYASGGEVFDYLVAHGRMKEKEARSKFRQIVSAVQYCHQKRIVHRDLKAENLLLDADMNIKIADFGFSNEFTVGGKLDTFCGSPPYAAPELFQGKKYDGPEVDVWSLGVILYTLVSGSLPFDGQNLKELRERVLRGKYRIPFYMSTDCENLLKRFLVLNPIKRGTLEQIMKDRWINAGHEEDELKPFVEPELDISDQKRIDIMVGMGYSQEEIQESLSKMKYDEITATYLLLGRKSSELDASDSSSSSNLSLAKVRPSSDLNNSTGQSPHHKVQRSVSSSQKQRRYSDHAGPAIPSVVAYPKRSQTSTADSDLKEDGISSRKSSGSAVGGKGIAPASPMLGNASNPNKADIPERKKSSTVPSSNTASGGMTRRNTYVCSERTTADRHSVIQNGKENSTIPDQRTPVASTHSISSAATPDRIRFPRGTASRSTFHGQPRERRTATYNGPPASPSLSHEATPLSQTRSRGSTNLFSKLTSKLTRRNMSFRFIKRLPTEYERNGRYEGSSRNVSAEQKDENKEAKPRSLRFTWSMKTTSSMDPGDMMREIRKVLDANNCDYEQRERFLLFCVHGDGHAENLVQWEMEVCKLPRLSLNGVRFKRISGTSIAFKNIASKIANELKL
T8 sequence (O15530 whole entry): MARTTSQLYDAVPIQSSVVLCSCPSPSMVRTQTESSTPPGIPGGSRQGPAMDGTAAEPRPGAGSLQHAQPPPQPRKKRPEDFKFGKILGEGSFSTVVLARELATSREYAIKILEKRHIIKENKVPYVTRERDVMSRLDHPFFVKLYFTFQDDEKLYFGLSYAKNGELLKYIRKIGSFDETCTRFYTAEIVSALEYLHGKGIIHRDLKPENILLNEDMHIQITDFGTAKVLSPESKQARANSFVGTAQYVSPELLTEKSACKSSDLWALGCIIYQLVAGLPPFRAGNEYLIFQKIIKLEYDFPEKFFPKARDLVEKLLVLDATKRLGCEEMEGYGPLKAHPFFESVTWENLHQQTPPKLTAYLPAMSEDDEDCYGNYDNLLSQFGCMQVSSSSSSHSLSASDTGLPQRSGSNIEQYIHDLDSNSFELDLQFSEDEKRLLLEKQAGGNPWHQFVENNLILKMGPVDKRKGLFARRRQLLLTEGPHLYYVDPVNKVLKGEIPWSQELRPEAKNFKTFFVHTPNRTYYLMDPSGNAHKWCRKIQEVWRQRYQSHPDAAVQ
T1 sequence (P14616 whole entry): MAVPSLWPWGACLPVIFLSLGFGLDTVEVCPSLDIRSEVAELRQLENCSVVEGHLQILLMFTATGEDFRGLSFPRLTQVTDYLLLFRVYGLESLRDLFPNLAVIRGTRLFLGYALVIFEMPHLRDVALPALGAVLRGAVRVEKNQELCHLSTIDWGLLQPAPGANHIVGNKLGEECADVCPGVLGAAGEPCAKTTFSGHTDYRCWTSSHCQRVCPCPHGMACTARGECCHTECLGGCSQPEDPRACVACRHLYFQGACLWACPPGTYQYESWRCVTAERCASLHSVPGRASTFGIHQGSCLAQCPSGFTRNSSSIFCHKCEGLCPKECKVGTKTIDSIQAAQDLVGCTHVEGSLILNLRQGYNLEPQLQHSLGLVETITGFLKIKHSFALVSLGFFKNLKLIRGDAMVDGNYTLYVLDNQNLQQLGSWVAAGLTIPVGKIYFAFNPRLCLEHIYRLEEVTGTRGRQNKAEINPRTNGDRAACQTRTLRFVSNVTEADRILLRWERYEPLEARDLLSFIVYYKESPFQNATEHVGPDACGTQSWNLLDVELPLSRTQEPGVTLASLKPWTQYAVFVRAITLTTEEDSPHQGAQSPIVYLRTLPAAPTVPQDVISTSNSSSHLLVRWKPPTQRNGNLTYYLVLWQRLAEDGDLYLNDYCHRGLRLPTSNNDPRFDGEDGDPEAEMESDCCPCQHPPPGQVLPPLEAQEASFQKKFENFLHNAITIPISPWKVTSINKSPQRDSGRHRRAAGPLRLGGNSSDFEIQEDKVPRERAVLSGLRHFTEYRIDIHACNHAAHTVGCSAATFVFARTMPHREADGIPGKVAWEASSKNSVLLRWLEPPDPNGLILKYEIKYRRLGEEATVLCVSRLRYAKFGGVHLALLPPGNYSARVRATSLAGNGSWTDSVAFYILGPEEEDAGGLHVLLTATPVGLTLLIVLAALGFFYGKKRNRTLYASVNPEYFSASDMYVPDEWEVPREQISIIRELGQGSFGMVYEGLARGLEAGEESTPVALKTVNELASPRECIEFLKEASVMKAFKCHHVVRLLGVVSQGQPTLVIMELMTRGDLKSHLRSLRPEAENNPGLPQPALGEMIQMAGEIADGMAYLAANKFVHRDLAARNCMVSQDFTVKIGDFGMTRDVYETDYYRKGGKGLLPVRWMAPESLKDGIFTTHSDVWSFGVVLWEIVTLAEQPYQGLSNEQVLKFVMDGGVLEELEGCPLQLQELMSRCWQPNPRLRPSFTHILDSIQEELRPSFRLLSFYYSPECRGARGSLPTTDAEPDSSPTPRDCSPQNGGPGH
KDR, sequence (P35968 whole entry): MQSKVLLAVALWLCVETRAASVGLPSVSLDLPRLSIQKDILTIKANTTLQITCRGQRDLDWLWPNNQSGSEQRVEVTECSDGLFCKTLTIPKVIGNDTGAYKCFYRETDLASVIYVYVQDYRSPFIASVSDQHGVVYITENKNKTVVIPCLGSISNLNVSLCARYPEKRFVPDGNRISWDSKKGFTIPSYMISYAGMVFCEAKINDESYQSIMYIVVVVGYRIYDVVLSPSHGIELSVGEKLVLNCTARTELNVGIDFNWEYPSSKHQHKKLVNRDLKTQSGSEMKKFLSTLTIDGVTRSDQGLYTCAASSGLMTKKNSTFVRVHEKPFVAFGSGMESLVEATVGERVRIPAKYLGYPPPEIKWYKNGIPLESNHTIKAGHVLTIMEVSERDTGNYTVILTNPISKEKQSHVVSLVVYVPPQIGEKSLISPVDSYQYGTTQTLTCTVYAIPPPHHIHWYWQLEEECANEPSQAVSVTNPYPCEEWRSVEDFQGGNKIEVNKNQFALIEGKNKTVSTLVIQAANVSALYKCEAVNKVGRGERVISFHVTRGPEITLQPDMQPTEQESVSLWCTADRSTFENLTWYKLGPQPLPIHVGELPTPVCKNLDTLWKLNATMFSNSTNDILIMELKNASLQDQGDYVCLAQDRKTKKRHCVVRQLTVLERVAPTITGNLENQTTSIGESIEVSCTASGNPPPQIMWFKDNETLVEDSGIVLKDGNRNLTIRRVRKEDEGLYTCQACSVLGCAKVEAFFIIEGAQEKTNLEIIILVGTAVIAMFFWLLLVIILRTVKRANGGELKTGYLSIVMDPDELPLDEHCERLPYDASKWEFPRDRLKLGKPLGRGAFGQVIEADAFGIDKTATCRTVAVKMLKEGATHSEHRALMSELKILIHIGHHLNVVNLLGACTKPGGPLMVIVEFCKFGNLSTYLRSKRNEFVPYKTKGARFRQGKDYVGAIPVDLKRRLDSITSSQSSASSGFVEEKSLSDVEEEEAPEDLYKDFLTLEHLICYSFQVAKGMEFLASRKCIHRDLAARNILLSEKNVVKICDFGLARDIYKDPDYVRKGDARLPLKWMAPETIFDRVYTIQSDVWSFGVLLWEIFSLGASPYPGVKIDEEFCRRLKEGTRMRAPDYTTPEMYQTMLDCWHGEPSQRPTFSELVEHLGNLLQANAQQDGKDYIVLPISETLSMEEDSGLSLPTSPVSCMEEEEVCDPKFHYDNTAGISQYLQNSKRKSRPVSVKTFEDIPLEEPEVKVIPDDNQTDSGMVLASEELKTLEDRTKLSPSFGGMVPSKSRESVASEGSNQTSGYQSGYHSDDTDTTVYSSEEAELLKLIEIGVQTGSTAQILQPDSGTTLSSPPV
T12 sequence (Q16816 whole entry): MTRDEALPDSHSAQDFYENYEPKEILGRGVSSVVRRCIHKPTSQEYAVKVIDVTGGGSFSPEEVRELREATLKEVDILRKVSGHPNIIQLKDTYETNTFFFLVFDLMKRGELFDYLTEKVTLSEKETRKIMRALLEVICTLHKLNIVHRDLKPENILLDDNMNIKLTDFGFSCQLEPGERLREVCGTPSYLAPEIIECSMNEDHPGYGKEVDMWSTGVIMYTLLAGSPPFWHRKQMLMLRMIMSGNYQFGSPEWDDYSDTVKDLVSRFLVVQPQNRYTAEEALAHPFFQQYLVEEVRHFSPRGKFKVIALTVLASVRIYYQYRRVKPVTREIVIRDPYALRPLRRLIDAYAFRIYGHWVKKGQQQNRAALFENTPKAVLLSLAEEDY

Broadly, the inhibition is the drop in the measured response relative to a control, in per cent. On to `COc1cc2c(cn1)N(C)C(=O)[C@@H](NC(=O)c1nc3n(n1)[C@H](c1ccccc1)CC3)CC2` [GNE684, (S)-N-((S)-7-methoxy-1-methyl-2-oxo-2,3,4,5-tetrahydro-1H-pyrido[3,4-b]azepin-3-yl)-5-phenyl-6,7-dihydro-5H-pyrrolo[1,2-b][1,2,4]triazole-2-carboxamide], for which the inhibition at 10 µM at PLK1 was 4%; on PAK4 it was 14%; at IRR, 12%; at DRAK1 it was 0.5%; on KDR it was -0.5%; on MST3, 4%. Also, the inhibition at 10 µM on DCAMKL2 was 2%; on CK2_alpha1 it was 3.5%; at GSK3_beta, 5%; at Hyl, 1%; on RAF1(Y340D,Y341D), -2%; at DYRK4 it was 2%. Moreover, the inhibition at 10 µM on PDK1(direct) is 5%; on MUSK it was 14%; on JNK3 it was 3%; at PhK_gamma2 it was 1%; at CaMKI, -5.5%; on HIPK4, 11.5%. Also, the inhibition at 10 µM was 0% on PhK_gamma1; 7% on PKG1_alpha; -2.5% at MARK3; 18.5% at Mink1; -6.5% at FGFR4.

(Values after paper PMC7206119, “RIP1 inhibition blocks inflammatory diseases but not tumor growth or metastases” (Cell Death and Differentiation, 2019).)
